Experimental data from patent US20230002373A1, “COMPOUNDS AND COMPOSITIONS FOR TREATING CONDITIONS ASSOCIATED WITH STING ACTIVITY” (IFM Due, Inc., priority 2019, published 2023).

biological target: T1, hSTING (Homo sapiens, UniProt Q86WV6, G230A/H232R/R293Q/R71H); assay: STING reporter assay (luciferase) in THP1-Dual KO-IFNAR2 cells stimulated with 2′3′cGAMP; type: cell-based; details: 15 μM 2′3′cGAMP, 24 h, class symbols
T1 construct: host or cells: THP1-Dual KO-IFNAR2 cells
Description: STING pathway activation by the compounds described herein was measured using THP1-Dual™ cells (KO-IFNAR2).
THP1-Dual™ KO-IFNAR2 Cells (obtained from invivogen) were maintained in RPMI, 10% FCS, 5 ml P/S, 2 mM L-glut, 10 mM Hepes, and 1 mM sodium pyruvate. Compounds were spotted in empty 384 well tissue culture plates (Greiner 781182) by Echo for a final concentration of 0.0017-100 μM. Cells were plated into the TC plates […], 2×10E6 cells/mL. For activation with STING ligand, 2′3′cGAMP (MW 718.38, obtained from Invivogen), was prepared in Optimem media.
The following solutions were prepared for each 1×384 plate: • Solution A: 2 mL Optimem with one of the following stimuli: • 60 μL of 10 mM 2′3′cGAMP->150 μM stock • Solution B: 2 mL Optimem with 60 μL Lipofectamine 2000->Incubate 5 min at RT
2 mL of solution A and 2 ml Solution B was mixed and incubated for 20 min at room temperature (RT). 20 uL of transfection solution (A+B) was added on top of the plated cells, with a final 2′3′cGAMP concentration of 15 μM. The plates were then centrifuged immediately at 340 g for 1 minute, after which they were incubated at 37° C., 5% CO2, >98% humidity for 24 h. Luciferase reporter activity was then measured. EC50 values were calculated by using standard methods known in the art.
Luciferase reporter assay: 10 μL of supernatant from the assay was transferred to white 384-plate with flat bottom and squared wells. One pouch of QUANTI-Luc™ Plus was dissolved in 25 mL of water. 100 μL of QLC Stabilizer per 25 mL of QUANTI-Luc™ Plus solution was added. 50 μL of QUANTI-Luc™ Plus/QLC solution per well was then added. Luminescence was measured on a Platereader (e.g., Spectramax I3X (Molecular Devices GF3637001)).
Luciferase reporter activity was then measured. EC50 values were calculated by using standard methods known in the art.

T1 sequence (Q86WV6 whole entry R71H/G230A/H232R/R293Q): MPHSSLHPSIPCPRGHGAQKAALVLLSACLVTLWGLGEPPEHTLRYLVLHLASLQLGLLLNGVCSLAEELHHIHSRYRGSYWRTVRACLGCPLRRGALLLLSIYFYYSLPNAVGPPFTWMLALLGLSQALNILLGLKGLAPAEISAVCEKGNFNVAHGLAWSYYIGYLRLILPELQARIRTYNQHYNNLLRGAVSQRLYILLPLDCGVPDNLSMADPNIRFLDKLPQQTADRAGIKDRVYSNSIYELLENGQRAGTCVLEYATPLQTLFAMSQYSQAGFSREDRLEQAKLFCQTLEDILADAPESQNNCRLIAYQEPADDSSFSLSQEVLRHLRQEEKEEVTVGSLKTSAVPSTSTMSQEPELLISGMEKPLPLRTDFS

First: O=C(Nc1c[nH]c2ncc(F)cc12)C(=O)N[C@H]1CCCC2(CCCCC2)C1 (single isomer, unassigned) [Compound 196, N-[5-fluoro-1H-pyrrolo[2,3-b]pyridin-3-yl]-N′-[(2S or 2R)-spiro[5.5]undecan-2-yl]ethanediamide]
Second: O=C(Nc1c[nH]c2ncc(F)cc12)C(=O)N[C@@H]1CCCC2(CCCCC2)C1 (single isomer, unassigned) [Compound 197, N-[5-fluoro-1H-pyrrolo[2,3-b]pyridin-3-yl]-N′-[(2R or 2S)-spiro[5.5]undecan-2-yl]ethanediamide]
The EC50 of the first is lower: 1 to 5 µM for the first, 5 to 100 µM for the second.

`O=C(Nc1c[nH]c2ncc(F)cc12)C(=O)N[C@H]1CCC2(CCCC2)C1` (single isomer, unassigned) [Compound 199] and `O=C(Nc1c[nH]c2ncc(F)cc12)C(=O)N[C@@H]1CCC2(CCCC2)C1` (single isomer, unassigned) [Compound 200] fall in the same range of EC50: 5 to 100 µM for the first, 5 to 100 µM for the second.

First: O=C(Nc1c[nH]c2ncc(F)cc12)C(=O)N[C@H]1CCC2(CCCCC2)C1 (single isomer, unassigned) [Compound 201]
Second: O=C(Nc1c[nH]c2ncc(F)cc12)C(=O)N[C@@H]1CCC2(CCCCC2)C1 (single isomer, unassigned) [Compound 202]
The EC50 of the first is lower: 1 to 5 µM for the first, 5 to 100 µM for the second.

First: Cc1cc(NC(=O)C(=O)Nc2c[nH]c3ncc(F)cc23)cc(C(F)(F)F)c1 [Compound 101, N^1-(5-fluoro-1H-pyrrolo[2,3-b]pyridin-3-yl)-N^2-(3-methyl-5-(trifluoromethyl)phenyl)oxalamide]
Second: O=C(Nc1ccc(C(F)(F)F)cc1)C(=O)Nc1c[nH]c2ncc(F)cc12 [Compound 125]
The EC50 of the first is lower: 0.2 to 1 µM for the first, 1 to 5 µM for the second. The first is the more potent here.

First: O=C(Nc1ccc(C2CCCCC2)nc1)C(=O)Nc1c[nH]c2ncc(F)cc12 [Compound 102, N^1-(6-cyclohexyl-pyridin-3-yl)-N^2-(5-fluoro-1H-pyrrolo[2,3-b]pyridin-3-yl)oxalamide]
Second: O=C(Nc1c[nH]c2ncc(F)cc12)C(=O)NC1CCC2(CCCCC2)CC1 [Compound 103, N^1-(5-fluoro-1H-pyrrolo[2,3-b]pyridin-3-yl)-N^2-(spiro[5.5]undecan-3-yl)oxalamide]
The EC50 of the first is higher: 1 to 5 µM for the first, 0.2 to 1 µM for the second. The second is the more potent here.

First: O=C(NCC12CC3CC(CC(C3)C1)C2)C(=O)Nc1c[nH]c2ncc(F)cc12 [Compound 105, N^1-(adamantan-1-ylmethyl)-N^2-(5-fluoro-1H-pyrrolo[2,3-b]pyridin-3-yl)oxalamide]
Second: O=C(NCC12CC3CC(CC(C3)C1)C2)C(=O)Nc1c[nH]c2ccncc12 [Compound 124, N^1-(adamantan-1-ylmethyl)-N^2-(1H-pyrrolo[3,2-c]pyridin-3-yl)oxalamide]
The EC50 of the first is higher: 5 to 100 µM for the first, 1 to 5 µM for the second. The second is the more potent here.

`Cc1cc(NC(=O)C(=O)Nc2c[nH]c3cccnc23)cc(C(F)(F)F)c1` [Compound 107, N^1-(3-methyl-5-(trifluoromethyl)phenyl)-N^2-(1H-pyrrolo[3,2-b]pyridin-3-yl)oxalamide] and `Cc1cc(NC(=O)C(=O)Nc2c[nH]c3ccncc23)cc(C(F)(F)F)c1` [Compound 115, N^1-(3-methyl-5-(trifluoromethyl)phenyl)-N^2-(1H-pyrrolo[3,2-c]pyridin-3-yl)oxalamide] fall in the same range of EC50: 0.2 to 1 µM for the first, 0.2 to 1 µM for the second.

`Cc1ccc(CNC(=O)C(=O)Nc2c[nH]c3cccnc23)cc1C(F)(F)F` [Compound 109, N^1-(4-methyl-3-(trifluoromethyl)benzyl)-N^2-(1H-pyrrolo[3,2-b]pyridin-3-yl)oxalamide] and `Cc1ccc(CNC(=O)C(=O)Nc2c[nH]c3ccc(Br)nc23)cc1C(F)(F)F` [Compound 128] fall in the same range of EC50: 0.2 to 1 µM for the first, 0.2 to 1 µM for the second.

First: O=C(NCc1ccc(-c2ccccc2C(F)(F)F)cc1)C(=O)Nc1c[nH]c2cccnc12 [Compound 110, N^1-(1H-pyrrolo[3,2-b]pyridin-3-yl)-N^2-((2′-(trifluoromethyl)-[1,1′-biphenyl]-4-yl)methyl)oxalamide]
Second: O=C(NCc1ccc(-c2ccccc2C(F)(F)F)cc1)C(=O)Nc1c[nH]c2ccncc12 [Compound 120, N^1-(1H-pyrrolo[3,2-c]pyridin-3-yl)-N^2-((2′-(trifluoro-methyl)-[1,1′-biphenyl]-4-yl)methyl)oxalamide]
The EC50 of the first is higher: 1 to 5 µM for the first, 0.2 to 1 µM for the second. The second is the more potent here.

First: O=C(NCC1CC2C=CC1C2)C(=O)Nc1c[nH]c2cccnc12 (centres unmarked) [Compound 111, N^1-(bicyclo[2.2.1]hept-5-en-2-ylmethyl)-N^2-(1H-pyrrolo[3,2-b]pyridin-3-yl)oxalamide]
Second: Cc1c(CNC(=O)C(=O)Nc2c[nH]c3cccnc23)cccc1C(F)(F)F [Compound 138, N1-(2-methyl-3-(trifluoromethyl)benzyl)-N2-(1H-pyrrolo[3,2-b]pyridin-3-yl)oxalamide]
The EC50 of the first is higher: 5 to 100 µM for the first, 0.2 to 1 µM for the second. The second is the more potent here.

`O=C(Nc1ccc(C(F)(F)F)cn1)C(=O)Nc1c[nH]c2ccncc12` [Compound 113, N^1-(1H-pyrrolo[3,2-c]pyridin-3-yl)-N^2-(5-(trifluoromethyl)pyridin-2-yl)oxalamide] and `O=C(Nc1cccc(C(F)(F)F)c1)C(=O)Nc1c[nH]c2ccncc12` [Compound 114, N^1-(1H-pyrrolo[3,2-c]pyridin-3-yl)-N^2-(3-(trifluoromethyl)phenyl)oxalamide] fall in the same range of EC50: 1 to 5 µM for the first, 1 to 5 µM for the second.

`Cc1ccc(CNC(=O)C(=O)Nc2c[nH]c3ccncc23)cc1C(F)(F)F` [Compound 119, N^1-(4-methyl-3-(trifluoromethyl)benzyl)-N^2-(1H-pyrrolo[3,2-c]pyridin-3-yl)oxalamide] and `Cc1c(CNC(=O)C(=O)Nc2c[nH]c3ccncc23)cccc1C(F)(F)F` [Compound 142, N1-(2-methyl-3-(trifluoromethyl)-benzyl)-N2-(1H-pyrrolo[3,2-c]pyridin-3-yl)oxalamide] fall in the same range of EC50: 0.2 to 1 µM for the first, 0.2 to 1 µM for the second.

Compared with `O=C(Nc1c[nH]c2ccncc12)C(=O)NC1CCC2(CCCCC2)CC1` [Compound 121, N^1-(1H-pyrrolo[3,2-c]pyridin-3-yl)-N^2-(spiro[5.5]undecan-3-yl)oxalamide], `O=C(NCCC1CCC(F)(F)CC1)C(=O)Nc1c[nH]c2ccncc12` [Compound 122, N^1-(2-(4,4-difluorocyclo-hexyl)ethyl)-N^2-(1H-pyrrolo[3,2-c]pyridin-3-yl)oxalamide] is higher in EC50: 1 to 5 µM for the first, 5 to 100 µM for the second. The first is the more potent here.

First: O=C(NCC1(c2cccc(Cl)c2)CC1)C(=O)Nc1c[nH]c2ccncc12 [Compound 129]
Second: O=C(NCc1ccc(Cl)cc1C(F)(F)F)C(=O)Nc1c[nH]c2cccnc12 [Compound 140, N1-(4-chloro-2-(trifluoromethyl)benzyl)-N2-(1H-pyrrolo[3,2-b]pyridin-3-yl)oxalamide]
The EC50 of the first is higher: 5 to 100 µM for the first, 1 to 5 µM for the second. The second is the more potent here.

Compared with `Cc1ccc(CNC(=O)C(=O)Nc2c[nH]c3ccc(-c4cnn(C)c4)nc23)cc1C(F)(F)F` [Compound 130], `O=C(NCc1ccc(C(F)(F)F)c(Cl)c1)C(=O)Nc1c[nH]c2ncc(F)c(F)c12` [Compound 131] is higher in EC50: 1 to 5 µM for the first, 5 to 100 µM for the second.

`Cc1cc(F)c(Cl)cc1NC(=O)C(=O)Nc1c[nH]c2cccnc12` [Compound 136, N1-(5-chloro-4-fluoro-2-methylphenyl)-N2-(1H-pyrrolo[3,2-b]pyridin-3-yl)oxalamide] and `CC(CNC(=O)C(=O)Nc1c[nH]c2cccnc12)Oc1ccc(C(F)(F)F)cc1` (centres unmarked) [Compound 137, N1-(1H-pyrrolo[3,2-b]pyridin-3-yl)-N2-(2-(4-(trifluoromethyl)phenoxy)propyl)oxalamide] fall in the same range of EC50: 5 to 100 µM for the first, 5 to 100 µM for the second.

same assay, conditions: 15 μM 2′3′cGAMP, 24 h, numeric bounds

`O=C(Nc1cnc2c(c1)CCCC2)C(=O)Nc1c[nH]c2cccnc12` [Compound 108, N^1-(1H-pyrrolo[3,2-b]pyridin-3-yl)-N^2-(5,6,7,8-tetrahydro-quinolin-3-yl)oxalamide] and `O=C(NCc1cccc(N2CCCCC2)c1)C(=O)Nc1c[nH]c2cccnc12` [Compound 141, N1-(3-(piperidin-1-yl)benzyl)-N2-(1H-pyrrolo[3,2-b]pyridin-3-yl)oxalamide] cannot be ordered by EC50: > 100 µM for the first, > 30 µM for the second.

`O=C(NCC1CCc2ccccc2O1)C(=O)Nc1c[nH]c2cccnc12` (centres unmarked) [Compound 132, N1-(chroman-2-ylmethyl)-N2-(1H-pyrrolo[3,2-b]pyridin-3-yl)oxalamide] and `O=C(Nc1c[nH]c2cccnc12)C(=O)NC(c1ccc(F)cc1)C1CC1` (centres unmarked) [Compound 135, N1-(cyclopropyl(4-fluorophenyl)methyl)-N2-(1H-pyrrolo[3,2-b]pyridin-3-yl)oxalamide] cannot be ordered by EC50: > 30 µM for the first, > 30 µM for the second.

`O=C(NCCOc1ccc(C(F)(F)F)cc1)C(=O)Nc1c[nH]c2cccnc12` [Compound 133, N1-(1H-pyrrolo[3,2-b]pyridin-3-yl)-N2-(2-(4-(trifluoromethyl)phenoxy)ethyl)oxalamide] and `O=C(NCCc1ncc(C(F)(F)F)cc1Cl)C(=O)Nc1c[nH]c2cccnc12` [Compound 139, N1-(2-(3-chloro-5-(trifluoromethyl)pyridin-2-yl)ethyl)-N2-(1H-pyrrolo[3,2-b]pyridin-3-yl)oxalamide] cannot be ordered by EC50: > 30 µM for the first, > 30 µM for the second.
